What was measured:
mice with CIA = assay: Histopathological analysis of hind legs, collagen-induced arthritis (CIA) models; assay type: in vivo; conditions: H&E and PAS, intramuscular weekly for 6 weeks
Procedure: (§1) Early Arthritis Model. Fifty mice with the same characteristics were immunized at the base of the tail with 100 μg of chicken type II collagen emulsified in complete Freund's adjuvant. The boost was applied on day 21 at the base of the tail with 100 μg of type II collagen emulsified with Freund's incomplete adjuvant. On the same boosting day, the treatments (a-d) were applied every week for six weeks. Three animals were euthanized in the sixth week and three in the thirteenth week. The spleen, lymph nodes, joint tissue, liver, lungs, kidneys and heart were obtained in order to assess the inflammatory infiltrate, the predominant cell populations and the expression of pro- and anti-inflammatory cytokines.
(§2) Established Arthritis Model. Arthritis was induced as in the previous model in 50 mice and the treatments were applied intramuscularly, after 2 weeks of the boost, every week for 6 weeks. Three animals were euthanized in the eighth week and three in the fifteenth week. The spleen, lymph nodes, joint tissue, liver, lungs, kidneys and heart were obtained in order to assess the inflammatory infiltrate, the predominant cell populations and the expression of pro- and anti-inflammatory cytokines.
Histological evaluation. The inflammatory infiltrate and tissue architecture were evaluated by H&E and Masson's trichrome staining and the content of proteoglycans, with the PAS technique. […]

Treg (CD4+/FOXP3+) cells = assay: FACS of spleen Foxp3+ regulatory T cells in CIA models; assay type: in vivo, mice; conditions: early and long-standing arthritis, first and second sacrifice, vs placebo
Procedure: as §1, §2
Cytometric evaluation. Using FACS, the percentage of populations of Th1 ([…]), Th2 (CD4^+/IL-4^+), Treg (CD4^+/FOXP3^+) Th17 (CD4^+/IL-17^+) and dendritic (CD4−/CD11c^+) cells in spleen cells.
FIG. 10. Effect of type I polymerized collagen in the early (preventive) and long-standing (late or palliative) arthritis model on the percentage of spleen CD4+ T cell subpopulations. (A) Spleen cells obtained ex vivo in the early arthritis model during the first sacrifice. (B) Spleen cells obtained ex vivo in the early arthritis model during the second sacrifice. (C) Spleen cells obtained ex vivo in the long-standing arthritis model during the first sacrifice. […] The intracellular production of IL-17A, IL-4, IFN-γ and Foxp3 by CD4+ T cells was detected by flow cytometry. The results are representative of 6 mice analyzed in each group. […]

Structure (SMILES): CN(Cc1cnc2nc(N)nc(N)c2n1)c1ccc(C(=O)N[C@@H](CCC(=O)O)C(=O)O)cc1 [MTX, methotrexate, reference compound]
- histopathology of joint tissue (inflammation, tissue architecture) (mice with CIA): induced some tissue abnormalities
- Foxp3+ regulatory T cells (Treg (CD4+/FOXP3+) cells): significant reduction
